In PubChem BioAssay (NCI) one finds GI50 and TGI data, which are given here for 13 compounds.

Several values for one entry are separate records, joined by “and”; a condition that tells them apart may be missing. Identical values can stand only once.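 Protocol summary: plate cells (96-well), add compound at 5 concentrations, incubate 48 h, interpolate endpoints linearly. Here, GI50 denotes the concentration required for 50% inhibition of growth. TGI marks complete inhibition of growth.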 Some results are limits rather than exact numbers.

For one experiment, the system named is K-562 leukemia. Nature of the experiment: NCI-60 cell line screen, 48 h.
Turning to `COc1cc(-c2nn(-c3cccc(NC(=O)Nc4ccc(Cl)c(Cl)c4)c3)cc2-c2ccncc2)ccc1Cl`, the GI50 is 0.89 µM and the TGI was over 50 µM.

As for `COc1ccc2[nH]cc(-c3nc(-c4c[nH]c5ncccc45)cs3)c2c1`, the GI50 is 2.68 µM and the TGI was over 100 µM.

For `CCCCCCNC(=O)c1nc(-c2ccccc2)oc1Cc1ccc(OP(=O)(O)O)cc1`, the GI50 is 22.6 µM and the TGI came to 64 µM.

Take `Cc1ccc(/C=C/c2c(C(=O)/C=C/c3ccc(C(F)(F)F)cc3)c(C)nc3ccccc23)cc1`: the GI50 was 1.55 µM and the TGI is over 100 µM.

With `O=c1cc(-c2ccccc2)[nH]c2c(S)cccc12`, the TGI was over 100 µM.

Regarding `CCCn1c(N)c(C(=O)N/N=C(/C)c2cc3cccc(OC)c3o2)sc1=S`, the GI50 was 18.3 µM and the TGI is over 100 µM.

Regarding `C=CCc1cccc(/C=N/NC(=O)CN2CCN(Cc3ccccc3)CC2)c1O`, the GI50 is 1.87 µM and the TGI stood at 11 µM.

On to `N=c1ccn2c(n1)OC1C(O)C(CO)OC12` (stereo not given), for which the GI50 was 81.4 µM and the TGI is over 1000 µM.

Consider `C[C@H]1Oc2cc(cnc2N)-c2c(nn(C)c2C#N)CN(C)C(=O)c2ccc(F)cc21`, for which the GI50 was over 100 µM and the TGI was over 100 µM.

In turn, `Cc1ccc(-c2nc3ccc([N+](=O)[O-])cc3[nH]2)cc1` yielded a TGI of over 100 µM.

Take `CC(=O)c1cc2c(o1)C(=O)c1ccccc1C2=O`: the GI50 was 0.284 µM and 0.311 µM; the TGI was 0.795 µM and 1.53 µM.

Consider `CCN(CC)c1nc(-c2ccc(Cl)cc2Cl)nc2ccccc12`, for which the GI50 was 30.8 µM and the TGI is over 100 µM.

`Cc1nc2ccccc2nc1-c1ccc(N=[N+]([O-])c2ccc(-c3nc4ccccc4nc3C)cc2)cc1`: the TGI was over 100 µM.

For a further experiment, the system named is OVCAR-8 ovarian. Nature of the experiment: NCI-60 cell line screen, 48 h.
Turning to `COc1cc(-c2nn(-c3cccc(NC(=O)Nc4ccc(Cl)c(Cl)c4)c3)cc2-c2ccncc2)ccc1Cl`, the GI50 is 0.931 µM and the TGI came out at 3.61 µM.

As for `COc1ccc2[nH]cc(-c3nc(-c4c[nH]c5ncccc45)cs3)c2c1`, the GI50 was 4.7 µM and the TGI is over 100 µM.

Turning to `CCCCCCNC(=O)c1nc(-c2ccccc2)oc1Cc1ccc(OP(=O)(O)O)cc1`, the GI50 is 20.2 µM and the TGI was found to be 45.6 µM.

Take `Cc1ccc(/C=C/c2c(C(=O)/C=C/c3ccc(C(F)(F)F)cc3)c(C)nc3ccccc23)cc1`: the GI50 is 1.88 µM and the TGI was 6.43 µM.

For `O=c1cc(-c2ccccc2)[nH]c2c(S)cccc12`, the TGI is over 100 µM.

Take `CCCn1c(N)c(C(=O)N/N=C(/C)c2cc3cccc(OC)c3o2)sc1=S`: the GI50 was 13.8 µM and the TGI is over 100 µM.

`C=CCc1cccc(/C=N/NC(=O)CN2CCN(Cc3ccccc3)CC2)c1O`: the GI50 was 2.08 µM and the TGI came out at 17.6 µM.

Consider `N=c1ccn2c(n1)OC1C(O)C(CO)OC12` (stereo not given), for which the GI50 was 0.481 µM and the TGI is over 1000 µM.

With `C[C@H]1Oc2cc(cnc2N)-c2c(nn(C)c2C#N)CN(C)C(=O)c2ccc(F)cc21`, the GI50 is 98 µM and the TGI is over 100 µM.

On to `Cc1ccc(-c2nc3ccc([N+](=O)[O-])cc3[nH]2)cc1`, for which the TGI is over 100 µM.

For the compound `CC(=O)c1cc2c(o1)C(=O)c1ccccc1C2=O`, the GI50 is 0.411 µM and 0.378 µM; the TGI was 1.32 µM and 1.53 µM.

In the case of `CCN(CC)c1nc(-c2ccc(Cl)cc2Cl)nc2ccccc12`, the GI50 was 31.9 µM and the TGI was over 100 µM.

As to `Cc1nc2ccccc2nc1-c1ccc(N=[N+]([O-])c2ccc(-c3nc4ccccc4nc3C)cc2)cc1`, the TGI was over 100 µM.

For another experiment, the system named is PC-3 prostate. Nature of the experiment: NCI-60 cell line screen, 48 h.
Regarding `COc1cc(-c2nn(-c3cccc(NC(=O)Nc4ccc(Cl)c(Cl)c4)c3)cc2-c2ccncc2)ccc1Cl`, the GI50 is 0.554 µM and the TGI turned out to be 2.83 µM.

Consider `COc1ccc2[nH]cc(-c3nc(-c4c[nH]c5ncccc45)cs3)c2c1`, for which the GI50 was 4.33 µM and the TGI is over 100 µM.

On to `CCCCCCNC(=O)c1nc(-c2ccccc2)oc1Cc1ccc(OP(=O)(O)O)cc1`, for which the GI50 is 17.9 µM and the TGI stood at 34.5 µM.

In the case of `Cc1ccc(/C=C/c2c(C(=O)/C=C/c3ccc(C(F)(F)F)cc3)c(C)nc3ccccc23)cc1`, the GI50 was 1.64 µM and the TGI is 3.68 µM.

On to `O=c1cc(-c2ccccc2)[nH]c2c(S)cccc12`, for which the TGI is over 100 µM.

In the case of `CCCn1c(N)c(C(=O)N/N=C(/C)c2cc3cccc(OC)c3o2)sc1=S`, the GI50 is 30.6 µM and the TGI was over 100 µM.

Take `C=CCc1cccc(/C=N/NC(=O)CN2CCN(Cc3ccccc3)CC2)c1O`: the GI50 is 3.45 µM and the TGI is 16.1 µM.

With `N=c1ccn2c(n1)OC1C(O)C(CO)OC12` (stereo not given), the GI50 was over 100 µM and the TGI was over 1000 µM.

Take `C[C@H]1Oc2cc(cnc2N)-c2c(nn(C)c2C#N)CN(C)C(=O)c2ccc(F)cc21`: the GI50 is over 100 µM and the TGI was over 100 µM.

`Cc1ccc(-c2nc3ccc([N+](=O)[O-])cc3[nH]2)cc1` showed a TGI of over 100 µM.

`CC(=O)c1cc2c(o1)C(=O)c1ccccc1C2=O`: the GI50 is 0.713 µM and 0.825 µM; the TGI is 2.81 µM and 4.48 µM.

On to `CCN(CC)c1nc(-c2ccc(Cl)cc2Cl)nc2ccccc12`, for which the GI50 was 24.1 µM and the TGI is over 63.3 µM.

`Cc1nc2ccccc2nc1-c1ccc(N=[N+]([O-])c2ccc(-c3nc4ccccc4nc3C)cc2)cc1` returned a TGI of over 100 µM.

A further experiment concerns MALME-3M melanoma. Nature of the experiment: NCI-60 cell line screen, 48 h.
Consider `COc1cc(-c2nn(-c3cccc(NC(=O)Nc4ccc(Cl)c(Cl)c4)c3)cc2-c2ccncc2)ccc1Cl`, for which the GI50 was 0.926 µM and the TGI is 2.42 µM.

On to `COc1ccc2[nH]cc(-c3nc(-c4c[nH]c5ncccc45)cs3)c2c1`, for which the GI50 was 4.95 µM and the TGI was over 100 µM.

Take `CCCCCCNC(=O)c1nc(-c2ccccc2)oc1Cc1ccc(OP(=O)(O)O)cc1`: the GI50 is 19.3 µM and the TGI was found to be 37 µM.

In the case of `Cc1ccc(/C=C/c2c(C(=O)/C=C/c3ccc(C(F)(F)F)cc3)c(C)nc3ccccc23)cc1`, the GI50 was 1.7 µM and the TGI is 3.08 µM.

`O=c1cc(-c2ccccc2)[nH]c2c(S)cccc12`: the TGI is over 100 µM.

Consider `CCCn1c(N)c(C(=O)N/N=C(/C)c2cc3cccc(OC)c3o2)sc1=S`, for which the GI50 is 74 µM and the TGI is over 100 µM.

In the case of `C=CCc1cccc(/C=N/NC(=O)CN2CCN(Cc3ccccc3)CC2)c1O`, the GI50 is 5.79 µM and the TGI turned out to be 19.8 µM.

On to `N=c1ccn2c(n1)OC1C(O)C(CO)OC12` (stereo not given), for which the GI50 was 4.22 µM; the TGI is 78.5 µM and > 100 µM.

Consider `C[C@H]1Oc2cc(cnc2N)-c2c(nn(C)c2C#N)CN(C)C(=O)c2ccc(F)cc21`, for which the GI50 was 18.8 µM and the TGI was over 100 µM.

Regarding `Cc1ccc(-c2nc3ccc([N+](=O)[O-])cc3[nH]2)cc1`, the TGI was over 100 µM.

On to `CC(=O)c1cc2c(o1)C(=O)c1ccccc1C2=O`, for which the GI50 was 0.18 µM and 0.143 µM; the TGI is 0.332 µM and 0.281 µM.

Take `CCN(CC)c1nc(-c2ccc(Cl)cc2Cl)nc2ccccc12`: the GI50 was 18.9 µM and the TGI turned out to be 49.7 µM.

`Cc1nc2ccccc2nc1-c1ccc(N=[N+]([O-])c2ccc(-c3nc4ccccc4nc3C)cc2)cc1` had a TGI of over 100 µM.

The subject of a further experiment is NCI/ADR-RES ovarian. Kind of experiment: NCI-60 cell line screen, 48 h.
For the compound `COc1cc(-c2nn(-c3cccc(NC(=O)Nc4ccc(Cl)c(Cl)c4)c3)cc2-c2ccncc2)ccc1Cl`, the GI50 is 0.99 µM and the TGI amounted to 4.67 µM.

With `COc1ccc2[nH]cc(-c3nc(-c4c[nH]c5ncccc45)cs3)c2c1`, the GI50 was 3.75 µM and the TGI was over 100 µM.

Turning to `CCCCCCNC(=O)c1nc(-c2ccccc2)oc1Cc1ccc(OP(=O)(O)O)cc1`, the GI50 was 20.3 µM and the TGI stood at 42 µM.

Take `Cc1ccc(/C=C/c2c(C(=O)/C=C/c3ccc(C(F)(F)F)cc3)c(C)nc3ccccc23)cc1`: the GI50 is 2.22 µM and the TGI worked out at 5.92 µM.

The compound `O=c1cc(-c2ccccc2)[nH]c2c(S)cccc12` returned a TGI of over 100 µM.

On to `CCCn1c(N)c(C(=O)N/N=C(/C)c2cc3cccc(OC)c3o2)sc1=S`, for which the GI50 was 18.6 µM and the TGI is over 100 µM.

In the case of `C=CCc1cccc(/C=N/NC(=O)CN2CCN(Cc3ccccc3)CC2)c1O`, the GI50 was 0.92 µM and the TGI worked out at 11.9 µM.

On to `N=c1ccn2c(n1)OC1C(O)C(CO)OC12` (stereo not given), for which the GI50 is 0.659 µM and the TGI was over 753 µM.

Regarding `C[C@H]1Oc2cc(cnc2N)-c2c(nn(C)c2C#N)CN(C)C(=O)c2ccc(F)cc21`, the GI50 is 65.5 µM and the TGI was over 100 µM.

`Cc1ccc(-c2nc3ccc([N+](=O)[O-])cc3[nH]2)cc1` displayed a TGI of over 100 µM.

As to `CC(=O)c1cc2c(o1)C(=O)c1ccccc1C2=O`, the GI50 is 0.341 µM and 0.329 µM; the TGI is 1.81 µM and 1.47 µM.

On to `CCN(CC)c1nc(-c2ccc(Cl)cc2Cl)nc2ccccc12`, for which the GI50 was 23 µM and the TGI is over 71.1 µM.

`Cc1nc2ccccc2nc1-c1ccc(N=[N+]([O-])c2ccc(-c3nc4ccccc4nc3C)cc2)cc1`: the TGI is over 100 µM.
